System: Capsicum frutescens Mill
Assay: Spray of abiotic elicitors to flowers of field-grown plants; HPLC of phenyl propanoid intermediates and capsaicinoids in harvested fruits
Type: in vivo
Excerpt: The seedlings of Capsicum frutescens Mill were raised in soil bed. The seeds of C. frutescens were collected from wild from BR Hills, […]. The 2 months old seedling plants were transplanted to the soil and grown under controlled conditions to avoid cross-pollination after the onset of flowering. The plants were established well 2 months after transplantation and started to flower by 90 days with proper agronomic practices with regard to irrigation, fertilizer application, weeding and care from major pests and diseases. The abiotic elicitor (Methyl Jasmonate) was purchased from Duchefa Pvt.LTD. Methyl Jasmonate stock solution was prepared and later used at different concentrations (1 mM, 2.5 mM and 5 mM) for spraying to the whole plant containing flowers, completely opened flowers, and braches containing flowers. The flowers of C. frutescens were sprayed with water, which was taken as control. […] The extracted samples were centrifuged at 4000 rpm for 10 minutes. The samples were subjected to High Performance Liquid Chromatography for quantification of phenyl proponoid intermediates and major Capsaicinoids. […] The detection was at 236 nm and flow rate was maintained at 1 ml/min. […] The reagent used was of HPLC grade. The intermediates of phenyl proponoid pathway (Phenylalanine, Cinnamic acid, Coumaric acid, Caffeic acid, Ferulic acid and Vanillylamine) and two major Capsaicinoids (Capsaicin and Dihydrocapsaicin) were purchased from Sigma Co. […] Standard deviation of samples was calculated according to Tukey's method. The seedlings of Capsicum frutescens Mill were raised in soil bed. The seeds of C. frutescens were collected from BR. Hills, […]. The 2 months old seedling plants were transplanted to the soil and grown under controlled conditions to avoid cross-pollination after the onset of flowering. The plants were established well two months after transplantation and started to flower by 90 days with proper agronomic practices with regard to irrigation, fertilizer application, weeding and care from major pests and diseases. […] USA. […] The flowers of C. frutescens were sprayed with water, which was taken as control. […] The extracted samples were centrifuged at 4000 rpm for 10 minutes. The samples were subjected to High Performance Liquid Chromatography for quantification of phenyl proponoid intermediates and major Capsaicinoids. […] The detection was at 236nm and flow rate was maintained at 1 ml/min. […] The reagent used was of HPLC grade. The intermediates of phenyl propanoid pathway (Phenylalanine, Cinnamic acid, Coumaric acid, Caffeic acid, Ferulic acid and Vanillylamine) and two major Capsaicinoids (Capsaicin and Dihydrocapsaicin) were purchased from Sigma Co. […] Standard deviation of samples was calculated according to Tukey's method.

[1] = fruits 25 days after anthesis, 1 mM sprayed
[2] = fruits 25 days after anthesis, 2.5 mM sprayed
[3] = fruits 25 days after anthesis, 5 mM sprayed
[4] = fruits 30 days after anthesis, 1 mM sprayed
[5] = fruits 30 days after anthesis, 2.5 mM sprayed
[6] = fruits 30 days after anthesis, 5 mM sprayed
[7] = fruits 35 days after anthesis, 1 mM sprayed
[8] = fruits 35 days after anthesis, 2.5 mM sprayed
[9] = fruits 35 days after anthesis, 5 mM sprayed
[10] = fruits 40 days after anthesis, 1 mM sprayed
[11] = fruits 40 days after anthesis, 2.5 mM sprayed
[12] = fruits 40 days after anthesis, 5 mM sprayed

CC/C=C\CC1C(=O)CCC1CC(=O)OC (centres unmarked) [Methyl Jasmonate]
Caffeic Acid level [1]: 3 ± 0.9 µM | Capsaicin level [1]: 17 ± 1.8 µM | Cinnamic Acid level [1]: 10 ± 1.0 µM | Coumaric Acid level [1]: 44 ± 3.2 µM | Dihydrocapsaicin level [1]: 5 ± 0.8 µM | Ferulic Acid level [1]: 33 ± 1.9 µM | Phenylalanine level [1]: 388 ± 8.2 µM | Vanillylamine level [1]: 49 ± 3.4 µM | Caffeic Acid level [2]: 3 ± 0.8 µM | Capsaicin level [2]: 18 ± 1.2 µM | Cinnamic Acid level [2]: 11 ± 0.8 µM | Coumaric Acid level [2]: 45 ± 3.8 µM | Dihydrocapsaicin level [2]: 6 ± 0.5 µM | Ferulic Acid level [2]: 49 ± 2.5 µM | Phenylalanine level [2]: 424 ± 9.2 µM | Vanillylamine level [2]: 63 ± 4.5 µM | Caffeic Acid level [3]: 3 ± 0.6 µM | Capsaicin level [3]: 16 ± 1.4 µM | Cinnamic Acid level [3]: 9 ± 0.8 µM | Coumaric Acid level [3]: 42 ± 3.9 µM | Dihydrocapsaicin level [3]: 7 ± 0.8 µM | Ferulic Acid level [3]: 48 ± 3.4 µM | Phenylalanine level [3]: 391 ± 10.0 µM | Vanillylamine level [3]: 42 ± 2.9 µM | Caffeic Acid level [4]: 4 ± 1.1 µM | Capsaicin level [4]: 41 ± 3.5 µM | Cinnamic Acid level [4]: 12 ± 0.9 µM | Coumaric Acid level [4]: 38 ± 3.4 µM | Dihydrocapsaicin level [4]: 13 ± 1.0 µM | Ferulic Acid level [4]: 68 ± 5.4 µM | Phenylalanine level [4]: 563 ± 12.2 µM | Vanillylamine level [4]: 61 ± 5.4 µM | Caffeic Acid level [5]: 12 ± 1.2 µM | Capsaicin level [5]: 48 ± 3.6 µM | Cinnamic Acid level [5]: 35 ± 2.1 µM | Coumaric Acid level [5]: 47 ± 4.2 µM | Dihydrocapsaicin level [5]: 14 ± 0.9 µM | Ferulic Acid level [5]: 80 ± 4.5 µM | Phenylalanine level [5]: 649 ± 8.7 µM | Vanillylamine level [5]: 96 ± 6.9 µM | Caffeic Acid level [6]: 10 ± 0.9 µM | Capsaicin level [6]: 48 ± 6.8 µM | Cinnamic Acid level [6]: 27 ± 1.8 µM | Coumaric Acid level [6]: 45 ± 3.8 µM | Dihydrocapsaicin level [6]: 13 ± 0.7 µM | Ferulic Acid level [6]: 73 ± 4.5 µM | Phenylalanine level [6]: 627 ± 7.4 µM | Vanillylamine level [6]: 58 ± 5.1 µM | Caffeic Acid level [7]: 12 ± 1.2 µM | Capsaicin level [7]: 36 ± 3.8 µM | Cinnamic Acid level [7]: 23 ± 1.5 µM | Coumaric Acid level [7]: 44 ± 4.2 µM | Dihydrocapsaicin level [7]: 15 ± 1.2 µM | Ferulic Acid level [7]: 122 ± 8 µM | Phenylalanine level [7]: 879 ± 5.9 µM | Vanillylamine level [7]: 111 ± 10.8 µM | Caffeic Acid level [8]: 37 ± 3.2 µM | Cinnamic Acid level [8]: 68 ± 4.5 µM | Coumaric Acid level [8]: 84 ± 4.1 µM | Dihydrocapsaicin level [8]: 19 ± 1.3 µM | Ferulic Acid level [8]: 150 ± 8 µM | Phenylalanine level [8]: 1052 ± 11 µM | Vanillylamine level [8]: 107 ± 10.2 µM | Caffeic Acid level [9]: 20 ± 1.2 µM | Capsaicin level [9]: 35 ± 2.9 µM | Cinnamic Acid level [9]: 36 ± 3.2 µM | Coumaric Acid level [9]: 59 ± 3.8 µM | Dihydrocapsaicin level [9]: 12 ± 1.0 µM | Ferulic Acid level [9]: 121 ± 12 µM | Phenylalanine level [9]: 921 ± 8.9 µM | Vanillylamine level [9]: 73 ± 7.1 µM | Caffeic Acid level [10]: 9 ± 0.8 µM | Capsaicin level [10]: 33 ± 2.4 µM | Cinnamic Acid level [10]: 14 ± 1.2 µM | Coumaric Acid level [10]: 39 ± 1.9 µM | Dihydrocapsaicin level [10]: 15 ± 1.2 µM | Ferulic Acid level [10]: 107 ± 11 µM | Phenylalanine level [10]: 516 ± 8.4 µM | Vanillylamine level [10]: 78 ± 6.8 µM | Caffeic Acid level [11]: 15 ± 1.2 µM | Capsaicin level [11]: 42 ± 3.2 µM | Cinnamic Acid level [11]: 23 ± 1.9 µM | Coumaric Acid level [11]: 73 ± 2.4 µM | Dihydrocapsaicin level [11]: 18 ± 1.4 µM | Ferulic Acid level [11]: 114 ± 12 µM | Phenylalanine level [11]: 584 ± 9.2 µM | Vanillylamine level [11]: 98 ± 5.8 µM | Caffeic Acid level [12]: 13 ± 1.3 µM | Capsaicin level [12]: 28 ± 3.8 µM | Cinnamic Acid level [12]: 20 ± 1.5 µM | Coumaric Acid level [12]: 44 ± 4.1 µM | Dihydrocapsaicin level [12]: 11 ± 1.3 µM | Ferulic Acid level [12]: 67 ± 4.5 µM | Phenylalanine level [12]: 547 ± 7.4 µM | Vanillylamine level [12]: 61 ± 5.1 µM

O=C([O-])c1ccccc1O.[Na+] [Salicylic Acid sodium salt, Salicylic acid sodium salt]
Caffeic Acid level [1]: 21 ± 1.0 µM | Capsaicin level [1]: 16 ± 08 µM | Cinnamic Acid level [1]: 3.4 ± 0.9 µM | Coumaric Acid level [1]: 12.0 ± 1.2 µM | Dihydrocapsaicin level [1]: 5 ± 0.7 µM | Ferulic Acid level [1]: 31 ± 1.2 µM | Phenylalanine level [1]: 378 ± 8.2 µM | Vanillylamine level [1]: 48 ± 1.4 µM | Caffeic Acid level [2]: 25 ± 1.1 µM | Capsaicin level [2]: 17 ± 1.1 µM | Cinnamic Acid level [2]: 3.9 ± 0.7 µM | Coumaric Acid level [2]: 15 ± 1.4 µM | Dihydrocapsaicin level [2]: 5.5 ± 0.6 µM | Ferulic Acid level [2]: 32 ± 1.4 µM | Phenylalanine level [2]: 389 ± 9.2 µM | Vanillylamine level [2]: 49 ± 1.8 µM | Caffeic Acid level [3]: 28 ± 1.2 µM | Capsaicin level [3]: 16 ± 1.1 µM | Cinnamic Acid level [3]: 3.5 ± 0.6 µM | Coumaric Acid level [3]: 14 ± 1.2 µM | Dihydrocapsaicin level [3]: 6 ± 0.7 µM | Ferulic Acid level [3]: 34 ± 1.9 µM | Phenylalanine level [3]: 379 ± 10.0 µM | Vanillylamine level [3]: 47 ± 2.1 µM | Caffeic Acid level [4]: 28 ± 1.0 µM | Capsaicin level [4]: 35 ± 2.4 µM | Cinnamic Acid level [4]: 4.1 ± 1.1 µM | Coumaric Acid level [4]: 12 ± 1.1 µM | Dihydrocapsaicin level [4]: 11 ± 1.1 µM | Ferulic Acid level [4]: 35 ± 4.1 µM | Phenylalanine level [4]: 514 ± 12.2 µM | Vanillylamine level [4]: 60 ± 1.9 µM | Caffeic Acid level [5]: 30 ± 1.5 µM | Capsaicin level [5]: 44 ± 1.1 µM | Cinnamic Acid level [5]: 4.9 ± 1.5 µM | Coumaric Acid level [5]: 18 ± 1.2 µM | Dihydrocapsaicin level [5]: 12 ± 0.1 µM | Ferulic Acid level [5]: 35 ± 3.9 µM | Phenylalanine level [5]: 519 ± 8.7 µM | Vanillylamine level [5]: 67 ± 2.1 µM | Caffeic Acid level [6]: 32 ± 1.1 µM | Capsaicin level [6]: 42 ± 2.8 µM | Cinnamic Acid level [6]: 4.5 ± 1.1 µM | Coumaric Acid level [6]: 15 ± 1.2 µM | Dihydrocapsaicin level [6]: 10 ± 0.6 µM | Ferulic Acid level [6]: 38 ± 3.4 µM | Phenylalanine level [6]: 528 ± 7.4 µM | Vanillylamine level [6]: 65 ± 4.2 µM | Caffeic Acid level [7]: 29 ± 1.0 µM | Capsaicin level [7]: 38 ± 2.8 µM | Cinnamic Acid level [7]: 18 ± 1.0 µM | Coumaric Acid level [7]: 24 ± 1.2 µM | Dihydrocapsaicin level [7]: 15 ± 1.0 µM | Ferulic Acid level [7]: 64 ± 5 µM | Phenylalanine level [7]: 778 ± 5.9 µM | Vanillylamine level [7]: 68 ± 1.9 µM | Caffeic Acid level [8]: 42 ± 1.1 µM | Cinnamic Acid level [8]: 25 ± 1.1 µM | Coumaric Acid level [8]: 30 ± 1.5 µM | Dihydrocapsaicin level [8]: 16 ± 1.0 µM | Ferulic Acid level [8]: 69 ± 6.8 µM | Phenylalanine level [8]: 789 ± 11 µM | Vanillylamine level [8]: 77 ± 2.8 µM | Capsaicin level (fruits 35 days after anthesis, 2.5 mM sprayed, sodium salt): 39 ± 2.8 µM | Caffeic Acid level [9]: 32 ± 1.0 µM | Capsaicin level [9]: 36 ± 2.1 µM | Cinnamic Acid level [9]: 24 ± 1.1 µM | Coumaric Acid level [9]: 21 ± 1.1 µM | Dihydrocapsaicin level [9]: 15 ± 0.9 µM | Ferulic Acid level [9]: 65 ± 4.5 µM | Phenylalanine level [9]: 891 ± 8.9 µM | Vanillylamine level [9]: 73 ± 3.6 µM | Caffeic Acid level [10]: 29 ± 1.1 µM | Capsaicin level [10]: 31 ± 2.1 µM | Cinnamic Acid level [10]: 15 ± 1.0 µM | Coumaric Acid level [10]: 21 ± 1.1 µM | Dihydrocapsaicin level [10]: 14 ± 1.0 µM | Ferulic Acid level [10]: 62 ± 5 µM | Phenylalanine level [10]: 532 ± 8.4 µM | Vanillylamine level [10]: 64 ± 5.8 µM | Caffeic Acid level [11]: 35 ± 1.0 µM | Capsaicin level [11]: 34 ± 2.8 µM | Cinnamic Acid level [11]: 23 ± 1.1 µM | Coumaric Acid level [11]: 29 ± 1.4 µM | Dihydrocapsaicin level [11]: 15 ± 1.0 µM | Ferulic Acid level [11]: 65 ± 6 µM | Phenylalanine level [11]: 549 ± 9.2 µM | Vanillylamine level [11]: 68 ± 4.8 µM | Caffeic Acid level [12]: 34 ± 1.1 µM | Capsaicin level [12]: 38 ± 3.4 µM | Cinnamic Acid level [12]: 20 ± 1.0 µM | Coumaric Acid level [12]: 24 ± 1.5 µM | Dihydrocapsaicin level [12]: 14 ± 1.1 µM | Ferulic Acid level [12]: 67 ± 6 µM | Phenylalanine level [12]: 547 ± 7.4 µM | Vanillylamine level [12]: 65 ± 6.1 µM
